Measurements reported in article PMC7366380, “Discovery of a Potent and Selective Covalent Inhibitor and Activity-Based Probe for the Deubiquitylating Enzyme UCHL1, with Antifibrotic Activity” (Journal of the American Chemical Society, 2020).
Values joined by “and” are separate entries in the source; they are usually repeats but may differ in a detail not shown here. Equal values may be shown once. Each block holds one compound with its values, some of them ahead of it.

Experiments:
USP19 = biological target: T1, USP19 (Homo sapiens, UniProt O94966); assay: Biochemical DUB selectivity profiling assay: USP19; conditions: Ub-Lys-TAMRA 50 nM, buffer A; read-out: Biochemical IC50 range, USP19
T1 sequence (O94966 1-1318): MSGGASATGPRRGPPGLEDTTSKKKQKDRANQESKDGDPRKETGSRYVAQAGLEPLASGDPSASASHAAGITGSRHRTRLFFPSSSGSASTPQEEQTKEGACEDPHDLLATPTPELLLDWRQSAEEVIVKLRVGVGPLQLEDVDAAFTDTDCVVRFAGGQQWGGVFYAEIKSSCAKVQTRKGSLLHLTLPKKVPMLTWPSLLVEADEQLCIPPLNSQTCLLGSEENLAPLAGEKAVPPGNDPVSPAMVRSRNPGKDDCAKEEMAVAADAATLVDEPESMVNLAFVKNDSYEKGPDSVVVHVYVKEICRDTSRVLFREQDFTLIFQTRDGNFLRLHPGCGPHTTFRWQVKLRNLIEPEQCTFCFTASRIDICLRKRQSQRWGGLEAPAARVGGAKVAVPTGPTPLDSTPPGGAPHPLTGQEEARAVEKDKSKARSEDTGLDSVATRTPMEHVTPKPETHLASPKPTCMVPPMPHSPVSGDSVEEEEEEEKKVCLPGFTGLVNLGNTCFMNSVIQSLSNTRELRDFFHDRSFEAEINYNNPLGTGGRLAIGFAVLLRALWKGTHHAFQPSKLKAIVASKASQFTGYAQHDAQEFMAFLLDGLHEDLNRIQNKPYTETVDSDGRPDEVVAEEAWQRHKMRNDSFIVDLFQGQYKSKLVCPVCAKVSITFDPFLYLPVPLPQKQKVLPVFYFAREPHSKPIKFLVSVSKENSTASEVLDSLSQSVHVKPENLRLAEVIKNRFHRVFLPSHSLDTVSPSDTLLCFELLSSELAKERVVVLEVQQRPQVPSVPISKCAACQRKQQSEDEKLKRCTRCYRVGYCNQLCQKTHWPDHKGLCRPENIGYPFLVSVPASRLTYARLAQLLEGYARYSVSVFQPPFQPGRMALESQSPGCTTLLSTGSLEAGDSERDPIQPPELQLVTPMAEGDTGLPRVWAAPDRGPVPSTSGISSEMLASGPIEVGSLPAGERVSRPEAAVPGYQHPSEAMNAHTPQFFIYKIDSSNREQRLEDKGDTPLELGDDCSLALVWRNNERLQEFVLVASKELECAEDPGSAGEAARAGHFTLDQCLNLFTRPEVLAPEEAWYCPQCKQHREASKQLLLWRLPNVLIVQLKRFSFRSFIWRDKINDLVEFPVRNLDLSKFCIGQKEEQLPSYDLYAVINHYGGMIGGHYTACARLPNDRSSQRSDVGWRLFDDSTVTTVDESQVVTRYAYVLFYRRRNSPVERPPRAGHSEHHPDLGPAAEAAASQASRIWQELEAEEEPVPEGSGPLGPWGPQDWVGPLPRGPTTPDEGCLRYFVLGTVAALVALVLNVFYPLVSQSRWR
Experimental: DUB Assay Substrate Substrate
Buffer Concentration (nM) […]
Sepharose® 4B resin (GE Healthcare).
10 kDa molecular weight cut-off (MWCO)).
Fractions containing protein
Protein concentration was […]
reaction volume of 21 μL. […]
compound (final concentration 5 nM).
IC50 values were determined
Biochemical DUB selectivity profiling assays […]
in 40 µL total reaction volume.

[1] = biological target: DUBs and other proteins in HEK293 cells (Homo sapiens, UniProt Q93008); assay: In-cell proteome-wide competitive ABPP, HEK293: other DUBs and proteins; conditions: replicates A-C; for Log2 reporter intensity values: USP9X;USP9Y: DMSO substract (FC); for Log2 reporter intensity values: USP9X;USP9Y, DMSO subtracted
[2] = biological target: DUBs and other proteins in HEK293 cells (Homo sapiens, UniProt Q14694); assay: as above; conditions: replicates A-C; for Log2 reporter intensity values: USP10: competition with ABP 2, DMSO substract (FC); for Log2 reporter intensity values: USP10, DMSO subtracted
[3] = biological target: DUBs and other proteins in HEK293 cells (Homo sapiens, UniProt P51784); assay: as above; conditions: replicates A-C; for Log2 reporter intensity values: USP11: DMSO substract (FC); for Log2 reporter intensity values: USP11, DMSO subtracted
[4] = biological target: DUBs and other proteins in HEK293 cells (Homo sapiens, UniProt Q96FW1); assay: as above; conditions: replicates A-C; for Log2 reporter intensity values: OTUB1: DMSO substract (FC); for Log2 reporter intensity values: OTUB1, DMSO subtracted
[5] = biological target: DUBs and other proteins in HEK293 cells (Homo sapiens, UniProt Q96BN8); assay: as above; conditions: replicates A-C; for Log2 reporter intensity values: OTULIN: DMSO substract (FC); for Log2 reporter intensity values: OTULIN, DMSO subtracted
[6] = biological target: DUBs and other proteins in HEK293 cells (Homo sapiens, UniProt O15372); assay: as above; conditions: for Log2 reporter intensity values, EIF3H: TMT replicates; for Log2 t-test Difference / Log2 reporter intensity values: EIF3H; for Log2 reporter intensity values / Log2 reporter intensity values: EIF3H: replicates A-C; for Log2 reporter intensity values: EIF3H: DMSO substract (FC)
[7] = LDN at 5 μM, competition with ABP 2
[8] = LDN at 25 μM, competition with ABP 2

Sequence of DUBs and other proteins in HEK293 cells (Homo sapiens, UniProt Q96FW1) (Q96FW1 whole entry): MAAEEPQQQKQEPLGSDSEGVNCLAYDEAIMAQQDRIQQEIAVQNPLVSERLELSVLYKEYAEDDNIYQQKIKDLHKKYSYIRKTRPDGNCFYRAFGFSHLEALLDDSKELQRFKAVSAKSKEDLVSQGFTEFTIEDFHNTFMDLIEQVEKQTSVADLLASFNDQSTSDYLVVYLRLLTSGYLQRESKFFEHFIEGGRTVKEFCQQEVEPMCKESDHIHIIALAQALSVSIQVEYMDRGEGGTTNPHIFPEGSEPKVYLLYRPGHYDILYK
Sequence of DUBs and other proteins in HEK293 cells (Homo sapiens, UniProt Q96BN8) (Q96BN8 whole entry): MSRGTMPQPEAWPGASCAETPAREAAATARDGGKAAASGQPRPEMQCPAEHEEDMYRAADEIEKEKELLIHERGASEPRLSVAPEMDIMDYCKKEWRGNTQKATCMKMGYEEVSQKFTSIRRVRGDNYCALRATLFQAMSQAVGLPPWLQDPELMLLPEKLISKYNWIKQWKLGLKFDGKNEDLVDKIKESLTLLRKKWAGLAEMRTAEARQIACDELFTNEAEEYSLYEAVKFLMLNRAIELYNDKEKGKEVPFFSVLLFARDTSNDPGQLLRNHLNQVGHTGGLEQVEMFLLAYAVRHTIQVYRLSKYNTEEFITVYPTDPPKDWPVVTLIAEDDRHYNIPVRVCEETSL
Sequence of DUBs and other proteins in HEK293 cells (Homo sapiens, UniProt P51784) (P51784 whole entry): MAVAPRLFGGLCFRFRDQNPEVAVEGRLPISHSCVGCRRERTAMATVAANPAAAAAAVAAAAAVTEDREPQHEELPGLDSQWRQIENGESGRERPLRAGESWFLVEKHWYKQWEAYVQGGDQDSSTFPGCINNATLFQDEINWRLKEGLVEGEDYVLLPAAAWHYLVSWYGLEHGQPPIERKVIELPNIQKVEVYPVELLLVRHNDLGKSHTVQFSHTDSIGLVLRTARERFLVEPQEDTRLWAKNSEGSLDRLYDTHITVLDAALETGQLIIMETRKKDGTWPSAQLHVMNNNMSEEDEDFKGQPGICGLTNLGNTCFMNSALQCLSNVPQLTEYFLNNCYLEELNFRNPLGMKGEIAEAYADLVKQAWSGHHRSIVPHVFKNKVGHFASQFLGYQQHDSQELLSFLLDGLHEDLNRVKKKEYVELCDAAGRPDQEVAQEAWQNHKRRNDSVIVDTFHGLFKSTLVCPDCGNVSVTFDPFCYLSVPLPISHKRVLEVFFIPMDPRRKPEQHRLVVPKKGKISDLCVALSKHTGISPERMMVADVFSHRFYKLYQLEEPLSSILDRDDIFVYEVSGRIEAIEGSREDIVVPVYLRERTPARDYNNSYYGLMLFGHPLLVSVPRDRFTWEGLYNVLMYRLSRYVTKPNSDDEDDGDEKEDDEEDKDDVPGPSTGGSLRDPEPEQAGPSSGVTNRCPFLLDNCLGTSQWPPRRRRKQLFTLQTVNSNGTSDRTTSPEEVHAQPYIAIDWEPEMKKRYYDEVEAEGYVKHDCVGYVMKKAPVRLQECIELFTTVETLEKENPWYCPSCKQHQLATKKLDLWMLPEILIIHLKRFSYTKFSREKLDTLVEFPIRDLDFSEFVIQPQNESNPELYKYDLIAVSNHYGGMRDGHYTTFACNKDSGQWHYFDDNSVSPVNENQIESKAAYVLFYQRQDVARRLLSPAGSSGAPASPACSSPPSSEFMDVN
Sequence of DUBs and other proteins in HEK293 cells (Homo sapiens, UniProt Q93008) (Q93008 whole entry): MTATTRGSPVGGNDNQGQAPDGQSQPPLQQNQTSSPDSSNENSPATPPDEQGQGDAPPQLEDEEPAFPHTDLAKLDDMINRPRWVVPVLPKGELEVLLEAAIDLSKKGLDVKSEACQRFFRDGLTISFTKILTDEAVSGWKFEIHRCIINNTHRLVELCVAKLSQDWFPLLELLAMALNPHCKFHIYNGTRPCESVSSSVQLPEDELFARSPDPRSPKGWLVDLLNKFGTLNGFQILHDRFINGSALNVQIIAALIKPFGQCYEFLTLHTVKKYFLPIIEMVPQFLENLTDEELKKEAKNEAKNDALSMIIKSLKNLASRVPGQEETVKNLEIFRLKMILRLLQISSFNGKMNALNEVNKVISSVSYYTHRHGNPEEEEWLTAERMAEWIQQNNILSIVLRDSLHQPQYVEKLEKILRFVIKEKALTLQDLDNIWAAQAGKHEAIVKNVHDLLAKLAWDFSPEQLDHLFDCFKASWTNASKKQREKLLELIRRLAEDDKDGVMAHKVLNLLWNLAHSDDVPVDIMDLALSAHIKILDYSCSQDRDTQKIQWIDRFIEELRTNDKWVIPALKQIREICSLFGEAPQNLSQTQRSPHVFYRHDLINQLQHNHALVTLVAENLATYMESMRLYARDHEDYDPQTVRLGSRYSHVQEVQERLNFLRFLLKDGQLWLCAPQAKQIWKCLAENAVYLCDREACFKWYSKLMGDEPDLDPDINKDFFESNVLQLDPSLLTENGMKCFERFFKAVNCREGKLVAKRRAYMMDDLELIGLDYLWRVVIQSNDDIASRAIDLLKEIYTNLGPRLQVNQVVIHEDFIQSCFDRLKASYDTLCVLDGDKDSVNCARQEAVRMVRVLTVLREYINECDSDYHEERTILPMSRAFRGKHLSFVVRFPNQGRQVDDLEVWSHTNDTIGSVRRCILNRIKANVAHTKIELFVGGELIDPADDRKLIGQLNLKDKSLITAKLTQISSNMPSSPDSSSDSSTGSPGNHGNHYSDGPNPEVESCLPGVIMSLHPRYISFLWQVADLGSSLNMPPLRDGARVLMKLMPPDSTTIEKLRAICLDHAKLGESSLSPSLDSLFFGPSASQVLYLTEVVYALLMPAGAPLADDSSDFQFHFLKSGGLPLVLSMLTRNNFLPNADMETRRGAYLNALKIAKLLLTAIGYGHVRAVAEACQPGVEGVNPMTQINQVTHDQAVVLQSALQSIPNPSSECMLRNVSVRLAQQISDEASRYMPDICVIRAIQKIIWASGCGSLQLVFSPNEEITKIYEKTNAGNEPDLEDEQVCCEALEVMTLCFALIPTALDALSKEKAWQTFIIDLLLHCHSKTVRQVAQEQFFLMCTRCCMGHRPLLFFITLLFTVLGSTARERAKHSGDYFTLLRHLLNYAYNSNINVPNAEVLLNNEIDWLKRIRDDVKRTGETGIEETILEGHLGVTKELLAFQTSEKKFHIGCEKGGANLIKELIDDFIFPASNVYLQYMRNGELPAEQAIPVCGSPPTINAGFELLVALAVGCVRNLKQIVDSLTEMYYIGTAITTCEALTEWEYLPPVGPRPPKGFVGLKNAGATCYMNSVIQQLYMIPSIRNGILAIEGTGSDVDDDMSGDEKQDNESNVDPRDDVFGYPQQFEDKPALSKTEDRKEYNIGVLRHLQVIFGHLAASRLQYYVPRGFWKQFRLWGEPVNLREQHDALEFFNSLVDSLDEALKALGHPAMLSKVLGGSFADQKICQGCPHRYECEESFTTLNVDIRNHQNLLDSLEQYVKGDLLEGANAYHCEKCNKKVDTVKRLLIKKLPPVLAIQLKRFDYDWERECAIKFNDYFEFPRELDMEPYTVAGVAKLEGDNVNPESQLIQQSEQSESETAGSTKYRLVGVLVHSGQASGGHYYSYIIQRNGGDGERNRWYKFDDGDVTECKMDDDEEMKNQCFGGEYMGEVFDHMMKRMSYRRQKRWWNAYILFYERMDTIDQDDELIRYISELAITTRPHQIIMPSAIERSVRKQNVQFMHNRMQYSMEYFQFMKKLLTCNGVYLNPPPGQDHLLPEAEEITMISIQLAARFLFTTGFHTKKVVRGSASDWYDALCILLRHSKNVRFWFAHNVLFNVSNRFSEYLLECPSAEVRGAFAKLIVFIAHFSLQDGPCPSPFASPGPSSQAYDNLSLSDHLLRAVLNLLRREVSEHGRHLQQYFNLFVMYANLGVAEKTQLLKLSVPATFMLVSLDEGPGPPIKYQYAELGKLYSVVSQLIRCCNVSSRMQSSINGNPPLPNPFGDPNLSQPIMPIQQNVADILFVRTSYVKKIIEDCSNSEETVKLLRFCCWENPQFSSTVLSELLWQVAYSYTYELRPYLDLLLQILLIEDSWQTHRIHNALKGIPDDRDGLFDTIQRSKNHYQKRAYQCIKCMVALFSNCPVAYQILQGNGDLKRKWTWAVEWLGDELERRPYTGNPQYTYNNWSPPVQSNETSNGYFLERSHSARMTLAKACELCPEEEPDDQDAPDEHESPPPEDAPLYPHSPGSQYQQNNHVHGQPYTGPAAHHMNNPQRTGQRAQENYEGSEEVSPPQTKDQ
Sequence of DUBs and other proteins in HEK293 cells (Homo sapiens, UniProt Q14694) (Q14694 whole entry): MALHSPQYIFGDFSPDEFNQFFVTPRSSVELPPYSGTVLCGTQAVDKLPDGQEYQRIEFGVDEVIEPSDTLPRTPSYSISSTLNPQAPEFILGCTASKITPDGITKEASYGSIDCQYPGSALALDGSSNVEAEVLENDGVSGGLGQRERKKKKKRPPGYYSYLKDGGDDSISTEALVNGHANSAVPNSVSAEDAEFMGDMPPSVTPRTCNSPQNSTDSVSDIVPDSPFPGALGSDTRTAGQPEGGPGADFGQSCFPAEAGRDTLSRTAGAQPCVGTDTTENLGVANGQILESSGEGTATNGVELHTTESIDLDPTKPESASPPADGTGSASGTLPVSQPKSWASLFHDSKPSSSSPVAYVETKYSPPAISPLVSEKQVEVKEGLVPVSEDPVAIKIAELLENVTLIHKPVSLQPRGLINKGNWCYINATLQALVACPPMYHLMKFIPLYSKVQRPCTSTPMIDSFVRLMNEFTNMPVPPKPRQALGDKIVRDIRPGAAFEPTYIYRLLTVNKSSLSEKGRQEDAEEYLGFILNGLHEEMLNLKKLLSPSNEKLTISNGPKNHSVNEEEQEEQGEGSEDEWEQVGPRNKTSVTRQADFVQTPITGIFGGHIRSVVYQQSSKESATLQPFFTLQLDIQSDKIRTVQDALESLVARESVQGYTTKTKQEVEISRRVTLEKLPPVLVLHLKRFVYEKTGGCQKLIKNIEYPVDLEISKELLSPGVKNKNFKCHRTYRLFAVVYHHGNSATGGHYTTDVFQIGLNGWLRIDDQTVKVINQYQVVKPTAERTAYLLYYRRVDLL

Structure (SMILES): CC(=O)O/N=C1\C(=O)N(Cc2cc(Cl)ccc2Cl)c2ccc(Cl)cc21 [LDN-57444, reference compound]
IC50 (USP19): > 10 µM

Structure (SMILES): CC(=O)O/N=C1\C(=O)N(Cc2cc(Cl)ccc2Cl)c2ccc(Cl)cc21 [LDN]
Log2 reporter intensity values: USP9X;USP9Y [1, 7]: 0.9588 and 0.9416 and 0.9642
Log2 reporter intensity values: USP9X;USP9Y [1, 8]: 0.918 and 0.963 and 0.9662
Log2 reporter intensity values ([1]; LDN at 5 μM): -0.06063 and -0.08675 and -0.05259
Log2 reporter intensity values ([1]; LDN at 25 μM): -0.1235 and -0.05434 and -0.04956
Log2 reporter intensity values ([1]; LDN_5 μM): -0.04118 and -0.05839 and -0.03582
Log2 reporter intensity values ([1]; LDN_25 μM): -0.08207 and -0.03699 and -0.0338
Log2 reporter intensity values: USP10 ([2]; LDN at 5 μM): 0.9581 and 0.8382 and 0.9082
Log2 reporter intensity values: USP10 ([2]; LDN at 25 μM): 0.9726 and 0.903 and 0.8841
Log2 reporter intensity values ([2]; LDN at 5 μM): -0.06168 and -0.2546 and -0.1389
Log2 reporter intensity values ([2]; LDN at 25 μM): -0.04009 and -0.1472 and -0.1778
Log2 reporter intensity values ([2]; LDN_5 μM): -0.04282 and -0.1627 and -0.09278
Log2 reporter intensity values ([2]; LDN_25 μM): -0.02837 and -0.09796 and -0.1169
Log2 reporter intensity values: USP11 [3, 7]: 1.03 and 1.059 and 1.019
Log2 reporter intensity values: USP11 [3, 8]: 1.058 and 0.9885 and 1.048
Log2 reporter intensity values ([3]; LDN at 5 μM): 0.04194 and 0.08295 and 0.02661
Log2 reporter intensity values ([3]; LDN at 25 μM): 0.082 and -0.01664 and 0.06827
Log2 reporter intensity values ([3]; LDN_5 μM): 0.02916 and 0.05885 and 0.01828
Log2 reporter intensity values ([3]; LDN_25 μM): 0.05815 and -0.0118 and 0.04812
Log2 reporter intensity values: OTUB1 [4, 7]: 1.034 and 1.042 and 1.019
Log2 reporter intensity values: OTUB1 [4, 8]: 1.066 and 0.9796 and 1.019
Log2 reporter intensity values ([4]; LDN at 5 μM): 0.04805 and 0.05934 and 0.02777
Log2 reporter intensity values ([4]; LDN at 25 μM): 0.09269 and -0.02973 and 0.02677
Log2 reporter intensity values ([4]; LDN_5 μM): 0.03375 and 0.04187 and 0.01932
Log2 reporter intensity values ([4]; LDN_25 μM): 0.06623 and -0.02052 and 0.01861
Log2 reporter intensity values: OTULIN [5, 7]: 0.9147 and 1.064 and 1.028
Log2 reporter intensity values: OTULIN [5, 8]: 0.944 and 1.042 and 0.9874
Log2 reporter intensity values ([5]; LDN at 5 μM): -0.1287 and 0.0891 and 0.03957
Log2 reporter intensity values ([5]; LDN at 25 μM): -0.08321 and 0.05912 and -0.01826
Log2 reporter intensity values ([5]; LDN_5 μM): -0.08587 and 0.06318 and 0.02728
Log2 reporter intensity values ([5]; LDN_25 μM): -0.05657 and 0.0413 and -0.01311
Log2 reporter intensity values, EIF3H ([6]; 5 μM LDN-57444 (60 min) + 20 nM ABP 2 (10 min), All values): 0.06362 and 0.03651 and 0.05305
Log2 reporter intensity values, EIF3H ([6]; 5 μM LDN-57444 (60 min) + 20 nM ABP 2 (10 min), DMSO subtracted): 0.03403 and 0.006918 and 0.02346
Log2 reporter intensity values, EIF3H ([6]; 25 μM LDN-57444 (60 min) + 20 nM ABP 2 (10 min), All values): 0.05041 and 0.03867 and 0.01604
Log2 reporter intensity values, EIF3H ([6]; 25 μM LDN-57444 (60 min) + 20 nM ABP 2 (10 min), DMSO subtracted): 0.02082 and 0.009076 and -0.01355
Log2 t-test Difference ([6]; LDN - 5 μM): 0.02512
Log2 reporter intensity values ([6]; LDN at 5 μM, DMSO subtracted): 0.03403 and 0.006918 and 0.02346
Log2 reporter intensity values ([6]; LDN at 25 μM, DMSO subtracted): 0.02082 and 0.009076 and -0.01355
Log2 reporter intensity values ([6]; LDN_5 μM, DMSO subtracted): 0.02373 and 0.004663 and 0.01625
Log2 reporter intensity values ([6]; LDN_25 μM, DMSO subtracted): 0.01439 and 0.006167 and -0.009494
Log2 reporter intensity values: EIF3H [6, 7]: 1.024 and 1.005 and 1.016
Log2 reporter intensity values: EIF3H [6, 8]: 1.015 and 1.006 and 0.9907

Log2 reporter intensity values: USP9X;USP9Y ([1]; 20 nM ABP 2 alone): 0.9211 and 0.9416 and 0.9589
Log2 reporter intensity values: USP11 ([3]; 20 nM ABP 2 alone): 0.9204 and 1.006 and 0.9863
Log2 reporter intensity values: OTUB1 ([4]; 20 nM ABP 2 alone): 1.065 and 1.087 and 1.08
Log2 reporter intensity values ([4]; 20 nM ABP 2): 0.1206 and 0.06511 and 0.07959
Log2 reporter intensity values: OTULIN ([5]; 20 nM ABP 2 alone): 0.9844
Log2 reporter intensity values, EIF3H ([6]; 20 nM ABP 2 (10 min), no competitor, All values): 0.02449 and 0.02357 and 0.02975
Log2 reporter intensity values, EIF3H ([6]; 20 nM ABP 2 (10 min), no competitor, DMSO subtracted): -0.005103 and -0.006015 and 0.0001635
Log2 reporter intensity values: EIF3H ([6]; 20 nM ABP 2 alone): 0.9965 and 0.9958 and 1
Log2 t-test Difference ([6]; ABP 2 - 20 nM): -0.003651
IC50 (USP19): > 10 µM
Structure (SMILES): C#Cc1cnc2[nH]cc(-c3cccc4c3CCN4C(=O)[C@@H]3CCCN3C#N)c2c1 [Compound 2]
Log2 reporter intensity values ([1]; 20 nM ABP 2): -0.08683 and -0.06047 and -0.07892 and -0.05844 and -0.04108
Log2 reporter intensity values ([3]; 20 nM ABP 2): -0.1196 and 0.008385 and -0.01996 and -0.07989 and 0.005492 and -0.01408
Log2 reporter intensity values ([5]; 20 nM ABP 2): 0.01067 and 0.1122 and -0.02265 and 0.006896 and 0.08034 and -0.01611
Log2 reporter intensity values ([6]; 20 nM ABP 2, DMSO subtracted): -0.005103 and -0.006015 and 0.0001635 and -0.003675 and -0.004305 and -3.08E-05
